Test results reported in US20220041559A1, “BENZO-AND PYRIDO-PYRAZOLES AS PROTEIN KINASE INHIBITORS” (ROTTAPHARM BIOTECH S.R.L., priority 2019, published 2022).

Legend:
YES kinase = target: T1, YES kinase (Homo sapiens, UniProt P07947); assay: ADP-Glo in vitro kinase assay, YES kinase inhibition; type: biochemical; settings: ATP 50 μM, 30 minutes at room temperature
T1 construct: purchased Thermo Fisher
Method: (§1) The ADP-Glo™ Kinase Assay (Promega), monitoring ADP produced in the kinase reaction, was performed in two steps. In the first one, after the kinase reaction, the ADP-Glo™ Reagent is added to terminate the kinase reaction and deplete the remaining ATP. In the second step, the Kinase Detection Reagent is added to simultaneously convert ADP to ATP (ATPn or newly synthesized ATP) and introduce luciferase and luciferin, allowing the ATPn to be measured (luciferase/luciferin reaction). The amount of light generated correlates with the amount of ATPn (indirectly with the ADP produced in kinase reaction).
Kinase reaction was performed in 10 μl in a white 384-well plate, inhibitor solutions in DMSO/Kinase buffer (40 mM Tris-Cl, 20 mM MgCl2, 0.1 mg/ml BSA, 50 μM DTT, pH 7.5) and YES kinase in Kinase buffer (Thermo Fisher, 0.5 ng/μl final concentration in assay) were pre-incubate 15 minutes at room temperature. At the kinase concentration selected, a signal-to negative control ratio >10 was calculated, according to supplier indication. […]
The range of inhibitor concentrations was from 10^−10 M up to 10^−5 M (final concentration in assay) and each experimental point was performed in duplicate. […] The luminescence was measured with a plate-reading luminometer (Envision 2104 Multilabel reader, PerkinElmer). […]

VEGFR = target: T2, VEGFR (Homo sapiens, UniProt P35968); assay: Inhibition of VEGF-induced VEGFR (Y1175)-phosphorylation (cell-based assay, HUVEC-C); settings: VEGF 50 ng/ml, Western blot
T2 construct: endogenous in cells; host or cells: HUVEC-C
T2 sequence (P35968 20-1356): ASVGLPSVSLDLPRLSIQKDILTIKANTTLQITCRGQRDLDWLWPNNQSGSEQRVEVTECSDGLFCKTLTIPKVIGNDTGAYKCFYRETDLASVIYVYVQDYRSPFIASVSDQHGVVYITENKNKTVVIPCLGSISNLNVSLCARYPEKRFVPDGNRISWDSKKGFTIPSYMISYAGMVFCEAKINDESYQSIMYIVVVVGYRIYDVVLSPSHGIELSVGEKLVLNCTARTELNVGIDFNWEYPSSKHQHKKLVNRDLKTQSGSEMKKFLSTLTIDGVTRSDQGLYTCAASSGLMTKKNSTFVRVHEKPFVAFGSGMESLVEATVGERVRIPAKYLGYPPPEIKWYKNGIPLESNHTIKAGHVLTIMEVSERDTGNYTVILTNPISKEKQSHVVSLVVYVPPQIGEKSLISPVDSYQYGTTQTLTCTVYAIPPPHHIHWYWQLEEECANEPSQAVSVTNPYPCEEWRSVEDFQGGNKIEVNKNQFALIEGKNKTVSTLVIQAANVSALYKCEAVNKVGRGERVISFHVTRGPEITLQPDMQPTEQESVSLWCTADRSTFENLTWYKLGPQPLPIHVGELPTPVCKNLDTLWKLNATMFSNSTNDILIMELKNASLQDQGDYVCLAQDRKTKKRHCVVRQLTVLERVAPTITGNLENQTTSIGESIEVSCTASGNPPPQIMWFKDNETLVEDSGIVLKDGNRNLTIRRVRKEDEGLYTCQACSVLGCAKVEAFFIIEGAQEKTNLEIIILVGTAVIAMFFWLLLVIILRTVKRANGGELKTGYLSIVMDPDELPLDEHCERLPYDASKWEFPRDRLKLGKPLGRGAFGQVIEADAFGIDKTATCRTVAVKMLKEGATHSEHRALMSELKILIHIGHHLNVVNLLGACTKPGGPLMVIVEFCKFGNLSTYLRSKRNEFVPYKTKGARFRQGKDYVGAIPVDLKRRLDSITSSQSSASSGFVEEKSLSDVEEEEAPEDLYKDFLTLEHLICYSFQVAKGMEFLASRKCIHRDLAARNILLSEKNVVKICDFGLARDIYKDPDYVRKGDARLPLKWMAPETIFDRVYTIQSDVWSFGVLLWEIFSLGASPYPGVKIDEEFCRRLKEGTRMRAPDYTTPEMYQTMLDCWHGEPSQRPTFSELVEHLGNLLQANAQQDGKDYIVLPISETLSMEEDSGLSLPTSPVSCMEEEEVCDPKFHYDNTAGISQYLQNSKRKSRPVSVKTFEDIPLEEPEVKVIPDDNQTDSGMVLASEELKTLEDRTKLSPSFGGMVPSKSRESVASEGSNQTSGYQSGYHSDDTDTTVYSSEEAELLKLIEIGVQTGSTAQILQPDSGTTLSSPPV
Method: HUVEC-C cells (Human Umbilical Vein Endothelial Cells from ATCC) were plated at 6×10^4 cells/well in 24 w microplates and grown adherent in medium F12K+0.1 mg/ml Heparin+0.05 mg/ml ECGS+10% FBS at 37° C. with 5% CO2. After 24 h, medium was removed and starvation was induced overnight in medium F12K+0.1 mg/ml Heparin+0.5% FBS (medium starvation). At the end of incubation, treatment of cells was performed by medium replacement and by adding fresh medium containing or not diluent or test compounds (DMSO 0.1% final concentration) diluted in medium starvation. After 1 hour, VEGF stimuli (diluted in medium starvation, 50 ng/ml final concentration) was added to each sample, with the exception of basal sample; plate was then incubated for 5 min at 37° C. with 5% CO2. At the end of the incubation, the medium was removed and cellular lysates were obtained by adding M-PER lysis buffer containing 1× Protease/Phosphatase inhibitors cocktail. Then, lysates were transferred into Eppendorf tubes, sonicated and stored at −80° C.
Lysates were analyzed by Western blot for VEGFR phosphorylation (Tyrosine 1175) and total receptor amount determination. Densitometric analysis of sample lanes were performed by ImageQuant TL software (GE Healthcare Life Sciences). […]

EGFR = EGFR (Homo sapiens, UniProt P00533); assay: Inhibition of EGF-induced EGFR (Y1068)-phosphorylation (cell-based assay, U87MG); design: endogenous in cells; host or cells: U87MG; settings: EGF 10 ng/ml, Western blot
EGFR, sequence (P00533 25-1210): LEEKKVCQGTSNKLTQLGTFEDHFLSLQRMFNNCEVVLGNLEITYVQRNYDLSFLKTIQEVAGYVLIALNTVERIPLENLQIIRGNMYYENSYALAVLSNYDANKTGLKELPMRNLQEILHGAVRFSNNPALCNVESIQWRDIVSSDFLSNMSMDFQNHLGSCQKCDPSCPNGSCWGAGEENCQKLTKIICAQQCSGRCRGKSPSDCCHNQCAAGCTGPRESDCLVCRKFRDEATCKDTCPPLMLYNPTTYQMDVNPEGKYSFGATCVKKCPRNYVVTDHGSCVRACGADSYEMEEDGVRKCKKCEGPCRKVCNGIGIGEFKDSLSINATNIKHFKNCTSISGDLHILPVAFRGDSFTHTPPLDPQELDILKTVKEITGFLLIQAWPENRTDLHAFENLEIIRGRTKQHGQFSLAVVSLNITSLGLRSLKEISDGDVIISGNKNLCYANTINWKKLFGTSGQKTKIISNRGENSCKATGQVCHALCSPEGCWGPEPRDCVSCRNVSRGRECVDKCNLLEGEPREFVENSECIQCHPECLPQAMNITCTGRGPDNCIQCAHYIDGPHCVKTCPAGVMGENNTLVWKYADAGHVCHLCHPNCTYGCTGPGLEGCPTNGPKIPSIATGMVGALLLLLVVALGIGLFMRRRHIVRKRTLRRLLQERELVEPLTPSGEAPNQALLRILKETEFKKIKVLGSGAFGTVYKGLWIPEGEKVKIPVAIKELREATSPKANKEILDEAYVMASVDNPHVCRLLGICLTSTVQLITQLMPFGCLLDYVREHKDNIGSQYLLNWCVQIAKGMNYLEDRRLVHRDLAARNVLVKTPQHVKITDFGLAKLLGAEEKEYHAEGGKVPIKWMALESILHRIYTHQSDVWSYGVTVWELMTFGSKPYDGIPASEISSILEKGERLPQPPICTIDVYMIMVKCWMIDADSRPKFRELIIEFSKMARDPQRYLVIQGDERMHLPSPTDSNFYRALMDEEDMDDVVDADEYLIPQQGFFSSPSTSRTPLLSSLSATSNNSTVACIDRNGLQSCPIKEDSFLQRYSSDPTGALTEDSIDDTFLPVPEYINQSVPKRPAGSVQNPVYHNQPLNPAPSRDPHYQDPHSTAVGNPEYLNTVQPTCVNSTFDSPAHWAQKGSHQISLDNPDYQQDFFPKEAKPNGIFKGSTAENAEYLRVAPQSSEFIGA
Method: U87MG cells (Uppsala 87 Malignant Glioma, a human glioblastoma cell line from ATCC) were plated at 3×10^5 cells/well in 12 w microplates and grown adherent in medium DMEM+10% FBS at 37° C. with 5% CO2. After 24 h, medium was removed and starvation was induced overnight in medium DMEM+0.1% FBS (medium starvation). At the end of incubation, treatment of cells was performed by medium replacement and by adding fresh medium containing or not diluent or test compounds (DMSO 0.1% final concentration) diluted in medium starvation. After 1 hour, EGF stimuli (diluted in medium starvation, 10 ng/ml final concentration) was added to each sample, with the exception of basal sample; plate was then incubated for 15 min at 37° C. with 5% CO2. At the end of the incubation, the medium was removed and cellular lysates were obtained by adding M-PER lysis buffer containing 1× Protease/Phosphatase inhibitors cocktail. Then, lysates were transferred into Eppendorf tubes, sonicated and stored at −80° C.
Protein content was measured by Bradford method. Lysates were analyzed by Western blot for EGFR phosphorylation (Tyrosine 1068) and total receptor amount determination. Densitometric analysis of sample lanes were performed by ImageQuant TL software (GE Healthcare Life Sciences). […]

VEGFR2 (KDR) kinase = target: T3, VEGFR2 (KDR) kinase (Homo sapiens, UniProt P35968); assay: ADP-Glo in vitro kinase assay, VEGFR2 kinase inhibition; type: biochemical; settings: ATP 50 μM, 30 minutes at room temperature
T3 construct: purchased SignalChem
T3 sequence (P35968 20-1356): as the sequence (P35968 20-1356) above
Method: as §1
Kinase reaction was performed in 10 μl in a white 384-well plate, inhibitor solutions in DMSO/Kinase buffer (40 mM Tris-Cl, 20 mM MgCl2, 0.1 mg/ml BSA, 50 μM DTT, pH 7.5) and VEGFR2 (KDR) kinase in Kinase buffer (SignalChem, 0.5 ng/μl final concentration in assay) were pre-incubate 15 minutes at room temperature. At the kinase concentration selected, a signal-to negative control ratio >10 was calculated, according to supplier indication. In samples representing the Total enzymatic activity or the negative control (no enzyme), inhibitor solution was replaced by diluents (1 DMSO in kinase buffer, final concentration) or ultra-pure water, respectively.
The range of inhibitor concentrations was from 10^−11 M up to 3×10^−6 M (final concentration in assay) and each experimental point was performed in duplicate.
To start the reaction, a substrate/ATP mix (50 μM final concentration, near to ATP Km value) was added to each sample and after 30 minutes incubation at room temperature, ADP-Glo™ Reagent and Kinase Detection Reagent, incubated in sequence according to the respective incubation time and supplier indication, allowed to stop and develop the kinase reaction. The luminescence was measured with a plate-reading luminometer (Envision 2104 Multilabel reader, PerkinElmer). The percentage of inhibition was calculated towards the Total enzymatic activity and the corresponding curves were analyzed by non linear curve fitting (GraphPad software, version 7 for Windows), allowing to calculate the IC50 value±standard error of the value

T1 sequence (P07947 whole entry): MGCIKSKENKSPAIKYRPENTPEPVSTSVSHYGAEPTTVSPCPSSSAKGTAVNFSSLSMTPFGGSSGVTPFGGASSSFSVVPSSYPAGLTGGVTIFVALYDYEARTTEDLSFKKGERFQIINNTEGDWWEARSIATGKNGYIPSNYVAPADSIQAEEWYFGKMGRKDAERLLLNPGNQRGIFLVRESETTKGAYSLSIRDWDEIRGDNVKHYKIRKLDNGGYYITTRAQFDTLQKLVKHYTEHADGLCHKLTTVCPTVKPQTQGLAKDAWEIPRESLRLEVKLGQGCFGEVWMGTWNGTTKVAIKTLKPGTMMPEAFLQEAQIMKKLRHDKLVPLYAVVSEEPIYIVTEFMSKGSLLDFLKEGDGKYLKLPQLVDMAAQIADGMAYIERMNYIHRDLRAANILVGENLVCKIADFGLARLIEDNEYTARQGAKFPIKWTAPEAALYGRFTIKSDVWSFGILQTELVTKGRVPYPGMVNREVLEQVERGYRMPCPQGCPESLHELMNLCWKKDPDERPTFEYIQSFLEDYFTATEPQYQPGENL

## CN1CCC(c2ccc(C(=O)Nc3n[nH]c4nc(Nc5ccccc5F)ccc34)cc2)CC1 [Compound 5, N-(6-((2-fluorophenyl)amino)-1H-pyrazolo[3,4-b]pyridin-3-yl)-4-(1-methylpiperidin-4-yl)benzamide]
YES kinase
  IC50: 3.6 nM
VEGFR
  Concentration from which maximal inhibitory activity on VEGFR-phosphorylation is shown: ≥ 1 µM
EGFR
  IC50: 3000 nM
VEGFR2 (KDR) kinase
  IC50: 82 nM
